Here are results for 4 compounds from patent publication US20210276960A1, “INHIBITORS OF TISSUE TRANSGLUTAMINASE 2 (TG2) AND USES THEREOF” (Northwestern University, priority 2020, published 2021).

Structures are written as SMILES.

Data set [1] deals with SKOV3 cells adhesion to FN. Briefly: Solid phase adhesion assay to FN, SKOV3. Format: cell-based. Conditions: FN 5 μg/mL, FIG. 2E. How it is done: Cells labeled with calcein AM (Life Technologies, #L3224) were seeded at a density of 4×10^4 cells in 96-well plates pre-coated with FN (5 μg/mL, Sigma, #F1141), and blocked using 1% BSA (Sigma, #A9647) in PBS in the presence of selected compounds diluted at the specified concentrations, in serum free media. After 45 minutes, unattached cells were washed using PBS containing 1 mM MgCl2(Sigma, #M8266) and adherent cells were quantified in a SpectraMaxGeminiXS fluorescence plate reader (Molecular Devices, Palo Alto, Calif.) at 530 nm wavelength. Experiments were performed inquadruplicate and repeated at least twice.

Data set [2] deals with OVCAR433 cells adhesion onto LP9 monolayers. In words: Cell adhesion to LP9 mesothelial monolayers, OVCAR433. Format: cell-based. Particulars: at concentrations >10 μM. The method, then: (§1) LP9 mesothelial cells added to clear-bottom 96-well plate at 12,000 cells/well were grown to confluency over 48 hours (h). OC cells were labeled with calcein AM and seeded at a density of 4×10^4 cells to monolayers of mesothelial cells and incubated for 1 h. Non-adherent cells were removed by washing with PBS.

A short description of another data set: Solubility assay. Type of data set: physicochemical. Conditions: aqueous buffer, kinetic from dmso stock; pH=7.4 PBS buffer, 2% DMSO. The method, then:
Solubility was measured in a 384-well plate using a Synergy HTX plate reader. Starting with a 50 mM DMSO stock solution of test compounds, dilutions were made from 1 to 500 μM final concentrations using acetonitrile, keeping the final DMSO concentration at 2%. UV absorption was measured at 254 nm and absorbance versus concentration was plotted to give a standard curve. A DMSO stock of test compound was also diluted with pH=7.4 PBS buffer to give a final concentration of 250 μM containing 2% DMSO. This mixture was stirred on a plate shaker for 1 hr after which it was centrifuged at 2500 rpm for 3 min. 50 μL of the supernatant was removed, transferred to a 384-well plate, and the UV absorbance at 254 nm was measured. Absorbance of the test compound in PBS buffer was analyzed with the standard curve to determine solubility.

For a further data set, the system named is SKOV3 cells. Briefly: Wound-healing assay, SKOV3. Type of data set: cell-based. Particulars: 8 μM, 24 hours. The method, then:
(§2) Wound Healing was Performed in 12-Well Plates Coated with 1 μg/Ml FN (Sigma, #1141) overnight at 4° C. OC cells were plated at a density of 2×10^5 cells/well in media containing 2% FBS. Under these conditions cells adhered on substrate, but cell proliferation was minimized. After 16 hours, the cell monolayer was scraped in straight line. Cell debris was removed and serum free media containing selected SMIs or control was replenished. For consistency during image acquisition, a reference point was marked close to the scratch mark and the plate was imaged under phase-contrast microscope at 0, 2, 6, 12 and 24 hours. Wound closure was assessed as the distance between the wound edges, calculated and quantified using the Image Pro-Express software. The percentage of wound closure was evaluated using the formula […]. The rate of migration (μm/h) of OC cells into the wound space was evaluated as the distance difference between wound edges at 0 and 24 h, divided by 24. The experiments were performed in duplicates.

The test system of the next data set is SKOV3-GFP cells. In words: In vivo cell attachment to the peritoneum. On the set-up: species or system mice. Particulars: for unattached OC cells recovered from the peritoneal cavity: NSG mice, ip, 10 μg/kg, 2 hours after injection.
Data set [3] has as its target T1, His-tagged TG2 / biotinylated FN42 interaction (Homo sapiens, UniProt P21980).
T1 construct: made in house
T1 sequence (P21980 1-687): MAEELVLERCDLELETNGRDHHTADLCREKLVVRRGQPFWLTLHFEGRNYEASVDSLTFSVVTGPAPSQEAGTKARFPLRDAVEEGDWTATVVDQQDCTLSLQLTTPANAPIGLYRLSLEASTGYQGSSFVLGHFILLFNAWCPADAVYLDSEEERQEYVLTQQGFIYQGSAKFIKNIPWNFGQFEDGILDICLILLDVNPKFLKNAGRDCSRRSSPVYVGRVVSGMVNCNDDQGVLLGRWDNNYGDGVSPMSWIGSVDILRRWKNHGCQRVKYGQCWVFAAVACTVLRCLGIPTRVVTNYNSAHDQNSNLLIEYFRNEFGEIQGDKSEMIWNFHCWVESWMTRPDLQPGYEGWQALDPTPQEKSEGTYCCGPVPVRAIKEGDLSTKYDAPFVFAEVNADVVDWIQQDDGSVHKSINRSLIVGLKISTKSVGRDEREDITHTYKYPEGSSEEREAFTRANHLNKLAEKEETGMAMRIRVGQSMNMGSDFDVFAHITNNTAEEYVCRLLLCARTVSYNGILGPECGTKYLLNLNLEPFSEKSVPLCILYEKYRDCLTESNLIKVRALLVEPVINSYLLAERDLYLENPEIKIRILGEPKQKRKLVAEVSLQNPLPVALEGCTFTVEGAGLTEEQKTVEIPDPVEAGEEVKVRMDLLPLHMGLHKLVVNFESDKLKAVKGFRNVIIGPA
Briefly: ELISA of the TG2-FN interaction. Type of data set: binding. Conditions: 10 μM. How it is done: Confirmation using ELISA: An independent ELISA validated inhibition of TG2/FN complex formation by SMIs^11. The ELISA assay measured the binding between His6-TG2 captured to the wells by anti-His antibodies and biotinylated FN42 detectable with streptavidin-HRP (FIG. 12A). […] Selected compounds (at concentrations between 5 and 10 μM) inhibited the ELISA signal by 29.7% to 69.5%^11.
ELISA measured the interaction between recombinant His tagged TG2 (rTG2-His) and the biotinylated 42 kD fragment of FN (FN42) which were expressed and purified, as previously described (Yakubov et al., 2014). Briefly, a mixture of 10 nMrTG2-His and selected SMIs or DMSO was added to 96 well plates pre-coated with monoclonal anti-His antibody (Roche, Indianapolis, Ind.; 1:6000). The mixture was incubated for 1 h at RT with 5 nM biotinylated FN42. After washing, wells were incubated with streptavidin-HRP (Cell Signaling, #3999; 1:2000). The reaction was developed with 3,3′,5,5′tetramethylbenzidine (TMB) substrate (BD Biosciences, #555214) and the optical density at […] was measured by using a BioTek microplate reader (Winooski, Vt., USA). Data shown are means±SEM of two independent experiments (n=6).
In general terms: An ELISA detects its analyte on a solid surface through an enzyme-linked reagent.

The subject of another data set is OVCAR5 cells. In words: Wound-healing assay, OVCAR5. Format: cell-based, human. Conditions: 8 μM, 24 hours. The method, then:
as §2

For data set [4], the system named is SKOV3 cells adhesion onto LP9 monolayers. In words: Cell adhesion to LP9 mesothelial monolayers, SKOV3. Format: cell-based. Conditions: 25 μM. How it is done:
as §1

Data set [5] has as its system FAK phosphorylation in SKOV3 cells. In words: Western blotting, FAK phosphorylation dose response. Type of data set: cell-based. Conditions: increasing doses (TG53 8 to 16 μM), 2 hours after adhesion to FN. The method, then:
FIG. 33. Dose response effects induced by TG2-FN inhibitors on FAK phosphorylation.
Lysates were separated by SDS-PAGE, transferred onto PVDF membranes (Bio-Rad), incubated with primary and secondary antibodies and developed by using SuperSignal™ West Femto Maximum Sensitivity Substrate and Pierce™ ECL Western Blotting Substrate, respectively (Thermo Scientific). Images were obtained by using the ImageQuant LAS 4000 mini-imager (GE Healthcare, Pittsburgh, Pa.). Densitometry analysis was performed using Quantity One software (Bio-Rad) and results were normalized to GAPDH loading controls. DMSO 0 min time point was considered as 1 for comparative analysis.
(In general: Immunoblotting shows a protein as a band on a membrane.)

Turning to `COc1cccc(C(=O)Nc2ccc(Nc3nc(C)cc(N(C)C)n3)cc2)c1` [MT-2], the “OC cells' adhesion to FN” value in data set [1] is “potently blocked”.

Broadly, the solubility is the concentration that dissolves in the medium under given conditions. Regarding `Cc1cc(N(C)C)nc(Nc2ccc(NC(=O)c3cccc(Br)c3)cc2)n1` [MT-6], the “OVCAR433 adhesion to the LP9 layer” value in data set [2] is recorded as “dose-dependent inhibitory effect”. In addition, the solubility at 1 h in “Solubility assay” is 6.4 µM. In addition, in data set [1], the “OC cells' adhesion to FN” value is listed as “potently blocked”. The “motility (scratch repair)” value in the data set with SKOV3 cells and with OVCAR5 cells was “inhibited” throughout. Also, the “unattached OC cells recovered from the peritoneal cavity” value in the data set on SKOV3-GFP cells is “attached less efficiently”; in the data set with SKOV3-GFP cells (listed as MT6) it was “Increased numbers”. For the same compound, the “adhesion of cancer cells to the peritoneum” value with SKOV3-GFP cells (nude mice, i.p., 2 hours) is recorded as “prevented the adhesion”. In addition, the “inhibition of rTG2-FN42 interaction relative to TG53” value in data set [3] is “slightly more potently than TG53”.

As to `Cc1cc(N(C)C)nc(Nc2ccc(NC(=O)c3ccc4ccccc4c3)cc2)n1` [MT-5], in data set [2], the “OVCAR433 adhesion to the LP9 layer” value is “dose-dependent inhibitory effect”. Also, the “OC cells' adhesion to FN” value in [1] is “potently blocked”. Moreover, the “motility (scratch repair)” value in the data set on SKOV3 cells and in the data set on OVCAR5 cells was “inhibited” each time. Besides, the “SKOV3 cell binding to the mesothelial layer” value in data set [4] is on record as “significantly decreased”. Besides, the FAK phosphorylation entry in [5] is on record as “dose-dependent inhibition”. Moreover, the “inhibition of rTG2-FN42 interaction relative to TG53” value in data set [3] is “slightly more potently than TG53”.

As to `Cc1cc(N(C)C)nc(Nc2ccc(NC(=O)c3ccc(Cl)c(Cl)c3)cc2)n1` [MT-3], in data set [3], the “inhibition of rTG2-FN42 interaction relative to TG53” value is on record as “slightly more potently than TG53”.
